molecular target: T1, purified human HDAC6 (Homo sapiens, UniProt Q9UBN7); assay: HDAC6 Enzyme Assay; type: biochemical; details: compound concentration 0.37 μM, read-out: Percent Inhibition
T1 construct: purchased BPS Bioscience 5006
T1 sequence (Q9UBN7 1-1215): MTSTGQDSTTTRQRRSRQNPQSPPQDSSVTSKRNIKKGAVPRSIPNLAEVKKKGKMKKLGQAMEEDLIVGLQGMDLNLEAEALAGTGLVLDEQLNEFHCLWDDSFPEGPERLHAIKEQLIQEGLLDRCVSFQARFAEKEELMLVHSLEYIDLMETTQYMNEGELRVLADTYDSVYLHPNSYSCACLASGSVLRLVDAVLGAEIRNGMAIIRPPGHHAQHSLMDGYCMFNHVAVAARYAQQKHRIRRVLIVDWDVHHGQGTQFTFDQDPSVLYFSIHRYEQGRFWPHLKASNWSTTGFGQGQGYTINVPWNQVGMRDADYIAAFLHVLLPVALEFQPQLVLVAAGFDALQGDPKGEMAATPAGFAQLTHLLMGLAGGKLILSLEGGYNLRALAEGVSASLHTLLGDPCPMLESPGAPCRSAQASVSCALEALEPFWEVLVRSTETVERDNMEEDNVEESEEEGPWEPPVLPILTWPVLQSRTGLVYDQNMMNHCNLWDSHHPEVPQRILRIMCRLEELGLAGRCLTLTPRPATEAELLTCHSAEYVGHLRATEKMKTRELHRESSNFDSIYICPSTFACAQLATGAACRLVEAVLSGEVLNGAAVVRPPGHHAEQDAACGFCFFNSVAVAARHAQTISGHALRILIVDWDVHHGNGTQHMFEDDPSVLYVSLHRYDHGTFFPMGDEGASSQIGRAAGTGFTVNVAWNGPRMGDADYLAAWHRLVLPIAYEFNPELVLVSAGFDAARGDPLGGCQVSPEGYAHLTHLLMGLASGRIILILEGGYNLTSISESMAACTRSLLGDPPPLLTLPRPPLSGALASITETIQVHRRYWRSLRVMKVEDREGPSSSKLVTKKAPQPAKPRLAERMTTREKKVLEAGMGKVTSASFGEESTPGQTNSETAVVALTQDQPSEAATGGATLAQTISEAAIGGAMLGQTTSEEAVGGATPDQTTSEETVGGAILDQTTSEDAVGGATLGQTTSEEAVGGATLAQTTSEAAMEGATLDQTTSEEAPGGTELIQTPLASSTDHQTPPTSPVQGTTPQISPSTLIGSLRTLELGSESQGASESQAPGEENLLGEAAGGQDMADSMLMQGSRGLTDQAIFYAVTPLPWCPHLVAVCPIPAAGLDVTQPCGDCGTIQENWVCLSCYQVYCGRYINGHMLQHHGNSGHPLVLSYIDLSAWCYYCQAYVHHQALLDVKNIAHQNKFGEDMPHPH
Summary of the method: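 Purified human HDAC6 incubated 1 h at 30° C with Ac-Arg-Gly-Lys(Ac)-AMC peptide plus compound or DMSO; stopped with trichostatin A. Deacetylated product trypsin-digested, released AMC read by fluorescence (Ex 340/Em 460 nm). Percent inhibition at one concentration or IC50 from curves relative to DMSO controls.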

Point of comparison: O=C(NO)c1ccc2c(=O)n(Cc3ccc(C(F)(F)F)cc3)c(-c3ccc(Cl)cc3)nc2c1 [Compound I-134, 2-(4-chlorophenyl)-N-hydroxy-4-oxo-3-[4-(trifluoromethyl)benzyl]-3,4-dihydroquinazoline-7-carboxamide], inhibition at 0.37 µM 88.6%. Against it:
- O=C(NO)c1ccc2ncn(Cc3cccc(-c4ccccc4C(F)(F)F)c3)c(=O)c2c1 [Compound I-124, N-hydroxy-4-oxo-3-{[2′-(trifluoromethyl)biphenyl-3-yl]methyl}-3,4-dihydroquinazoline-6-carboxamide] — higher, 91.4%
- O=C(NO)c1ccc2ncn(CCc3cccc(N4CCOCC4)c3)c(=O)c2c1 [Compound I-125, N-hydroxy-3-[2-(3-morpholin-4-ylphenyl)ethyl]-4-oxo-3,4-dihydroquinazoline-6-carboxamide] — lower, 88.2%
- O=C(NO)c1ccc2ncn(Cc3cccc(-c4cccc(C(=O)NC5CC5)c4)c3)c(=O)c2c1 [Compound I-126, 3-({3′-[(cyclopropylamino)carbonyl]biphenyl-3-yl}methyl)-N-hydroxy-4-oxo-3,4-dihydroquinazoline-6-carboxamide] — higher, 95.6%
- O=C(NO)c1ccc2c(=O)n(Cc3ccc(C(F)(F)F)cc3)c(-c3cccnc3)nc2c1 [Compound I-133, N-hydroxy-4-oxo-2-pyridin-3-yl-3-[4-(trifluoromethyl)benzyl]-3,4-dihydroquinazoline-7-carboxamide] — higher, 92.2%
- CS(=O)(=O)c1cccc(Cn2cnc3ccc(C(=O)NO)cc3c2=O)c1 [Compound I-135, N-hydroxy-3-[3-(methylsulfonyl)benzyl]-4-oxo-3,4-dihydroquinazoline-6-carboxamide] — higher, 95.3%
- COc1ncccc1-c1cccc(Cn2cnc3ccc(C(=O)NO)cc3c2=O)c1 [Compound I-136, N-hydroxy-3-[3-(2-methoxypyridin-3-yl)benzyl]-4-oxo-3,4-dihydroquinazoline-6-carboxamide] — higher, 94%
- O=C(NO)c1ccc2ccn(Cc3cccc(-n4ncc5ccccc54)c3)c(=O)c2c1 [Compound I-137, N-hydroxy-2-[3-(1H-indazol-1-yl)benzyl]-1-oxo-1,2-dihydroisoquinoline-7-carboxamide] — higher, 99.5%
- Cc1ncc(-c2nc3cc(C(=O)NO)ccc3c(=O)n2Cc2ccc(C(F)(F)F)cc2)n1C [Compound I-138, 2-(1,2-dimethyl-1H-imidazol-5-yl)-N-hydroxy-4-oxo-3-[4-(trifluoromethyl)benzyl]-3,4-dihydroquinazoline-7-carboxamide] — lower, 80.2%
- O=C(NO)c1ccc2ncn(Cc3cccc(S(=O)(=O)c4ccccc4)c3)c(=O)c2c1 [Compound I-142, N-hydroxy-4-oxo-3-[3-(phenylsulfonyl)benzyl]-3,4-dihydroquinazoline-6-carboxamide] — higher, 97.4%
- COc1ccc(-c2cccc(Cn3cnc4ccc(C(=O)NO)cc4c3=O)c2)cn1 [Compound I-143, N-hydroxy-3-[3-(6-methoxypyridin-3-yl)benzyl]-4-oxo-3,4-dihydroquinazoline-6-carboxamide] — higher, 96.6%

same assay, conditions: compound concentration 0.412 μM, read-out: Percent Inhibition

Point of comparison: O=C(NO)c1ccc2c(=O)[nH]c(COc3cc(Cl)cc(Cl)c3)nc2c1 [Compound I-145, 2-[(3,5-dichlorophenoxy)methyl]-N-hydroxy-4-oxo-3,4-dihydroquinazoline-7-carboxamide], inhibition at 0.412 µM 76.7%. Against it:
- Cc1cccc(Cn2ccc3ccc(C(=O)NO)cc3c2=O)c1 [Compound I-120, N-hydroxy-2-(3-methylbenzyl)-1-oxo-1,2-dihydroisoquinoline-7-carboxamide] — higher, 94.8%
- CC(C)n1cnc2ccc(C(=O)NO)cc2c1=O [Compound I-121, N-hydroxy-3-isopropyl-4-oxo-3,4-dihydroquinazoline-6-carboxamide] — lower, 71.9%
- O=C(NO)c1ccc2ccn(Cc3ccccc3F)c(=O)c2c1 [Compound I-122, 2-(2-fluorobenzyl)-N-hydroxy-1-oxo-1,2-dihydroisoquinoline-7-carboxamide] — higher, 94.6%
- O=C(NO)c1ccc2[nH]c(=O)n(-c3ccccc3)c(=O)c2c1 [Compound I-123, N-hydroxy-2,4-dioxo-3-phenyl-1,2,3,4-tetrahydroquinazoline-6-carboxamide] — lower, 71.7%
- O=C(NO)c1ccc2ncn(Cc3cccc(Cl)c3)c(=O)c2c1 [Compound I-127, 3-(3-chlorobenzyl)-N-hydroxy-4-oxo-3,4-dihydroquinazoline-6-carboxamide] — higher, 96.1%
- O=C(NO)c1ccc2ncn(Cc3cccc(-c4ccncc4)c3)c(=O)c2c1 [Compound I-128, N-hydroxy-4-oxo-3-(3-pyridin-4-ylbenzyl)-3,4-dihydroquinazoline-6-carboxamide] — higher, 95.9%
- O=C(NO)c1ccc2ccn(CCCOc3ccc(-n4ccnc4)cc3)c(=O)c2c1 [Compound I-129, N-hydroxy-2-{3-[4-(1H-imidazol-1-yl)phenoxy]propyl}-1-oxo-1,2-dihydroisoquinoline-7-carboxamide] — higher, 96.3%
- CCC(CC)Cn1ccc2ccc(C(=O)NO)cc2c1=O [Compound I-130, 2-(2-ethylbutyl)-N-hydroxy-1-oxo-1,2-dihydroisoquinoline-7-carboxamide] — higher, 93%
- O=C(NO)c1ccc2ccn(CCCc3ccc(Cl)cc3)c(=O)c2c1 [Compound I-131, 2-[3-(4-chlorophenyl)propyl]-N-hydroxy-1-oxo-1,2-dihydroisoquinoline-7-carboxamide] — higher, 96.9%
- Cc1nc2cc(C(=O)NO)ccc2c(=O)n1C [Compound I-132, N-hydroxy-2,3-dimethyl-4-oxo-3,4-dihydroquinazoline-7-carboxamide] — lower, 59.8%
- Cn1c(NCc2ccc(Cl)cc2)nc2cc(C(=O)NO)ccc2c1=O [Compound I-139, 2-[(4-chlorobenzyl)amino]-N-hydroxy-3-methyl-4-oxo-3,4-dihydroquinazoline-7-carboxamide] — higher, 78.5%
- COc1ccc(CCCn2ccc3ccc(C(=O)NO)cc3c2=O)cc1 [Compound I-140, N-hydroxy-2-[3-(4-methoxyphenyl)propyl]-1-oxo-1,2-dihydroisoquinoline-7-carboxamide] — higher, 96.5%
- CC(C)C(Cn1ccc2ccc(C(=O)NO)cc2c1=O)c1ccccc1 (stereo not shown) [Compound I-141, N-hydroxy-2-(3-methyl-2-phenylbutyl)-1-oxo-1,2-dihydroisoquinoline-7-carboxamide] — higher, 90.5%
- O=C(NO)c1ccc2c(=O)[nH]c(COc3ccccc3Cl)nc2c1 [Compound I-144, 2-[(2-chlorophenoxy)methyl]-N-hydroxy-4-oxo-3,4-dihydroquinazoline-7-carboxamide] — higher, 81.2%
- O=C(NO)c1ccc2c(=O)[nH]c(CNC3CCNCC3)nc2c1 [Compound I-146, N-hydroxy-4-oxo-2-[(piperidin-4-ylamino)methyl]-3,4-dihydroquinazoline-7-carboxamide] — lower, 65.7%
- O=C(NO)c1ccc2ncn(Cc3ccc(C(F)(F)F)cc3C(F)(F)F)c(=O)c2c1 [Compound I-147, 3-[2,4-bis(trifluoromethyl)benzyl]-N-hydroxy-4-oxo-3,4-dihydroquinazoline-6-carboxamide] — higher, 93.2%
- Cc1cc(Cn2ccc3ccc(C(=O)NO)cc3c2=O)no1 [Compound I-148, N-hydroxy-2-[(5-methylisoxazol-3-yl)methyl]-1-oxo-1,2-dihydroisoquinoline-7-carboxamide] — higher, 91.2%
- Cc1ccccc1OCCn1ccc2ccc(C(=O)NO)cc2c1=O [Compound I-149, N-hydroxy-2-[2-(2-methylphenoxy)ethyl]-1-oxo-1,2-dihydroisoquinoline-7-carboxamide] — higher, 97.3%
- O=C(NO)c1ccc2c(=O)n(Cc3ccc(C(F)(F)F)cc3)c(C3CCCCC3)nc2c1 [Compound I-150, 2-cyclohexyl-N-hydroxy-4-oxo-3-[4-(trifluoromethyl)benzyl]-3,4-dihydroquinazoline-7-carboxamide] — lower, 30.1%

From patent US8765773B2, “Substituted hydroxamic acids and uses thereof” (Millennium Pharmaceuticals, Inc., priority 2010, dated 2014)
